Measurements: patent US9078929B2, “ε-Polylysine conjugates and the use thereof” (Merck Patent GmbH, priority 2009, dated 2015)

Columns and labels:
[1] = Comparative planar scintigraphs, mouse model; assay type: in vivo
Source text: (§1) The uptake of ^99mTc-MAG3 and of ^99mTc-DMSA are compared with the uptake of (ε-L-polylysine-DOTA, loaded with ^111In) in the rat and mouse model in planar scintigraphs.

[2] = Comparative planar scintigraphs, rat model; assay type: in vivo
Source text: as §1

[3] = tested on: proteases; conditions: in contrast to α-polylysine; cited from earlier work

Molecule | kidney to background ratio compared with ε-L-polylysine-DOTA loaded with 111In [1] | kidney to background ratio compared with ε-L-polylysine-DOTA loaded with 111In [2] | enzymatic degradation by proteases [3]
O=C(O)CNC(=O)CNC(=O)CNC(=O)CS [^99mTc-MAG3, mercaptoacetyltriglycine, metal not drawn] | worse kidney to background ratio | worse kidney to background ratio | 
ε-polylysine |  |  | not enzymatically degraded
